Measured values: patent publication US20230357269A1 (LES LABORATOIRES SERVIER, priority 2020, published 2023)
Like-named read-outs stand apart in the source and are kept apart here.

Columns and labels:
[1] = other bond
[2] = target: human recombinant LRRK2 protein (Homo sapiens (Human), UniProt Q5S007); assay: LRRK2 Kinase Activity Assay (ADP-Glo); format: biochemical; conditions: LRRK2 wt; LRRKtide peptide and ATP substrates; 1h-incubation at 37° C.
Outline: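 Recombinant human LRRK2 acted on LRRKtide peptide and ATP for 1 h at 37 °C. ADP formed was detected by ADP-Glo luminescence (ATP depletion, then ADP-to-ATP conversion and luciferase). IC50s came from curve fits over 10 concentrations (N=2).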

human recombinant LRRK2 protein, sequence (Q5S007 whole entry): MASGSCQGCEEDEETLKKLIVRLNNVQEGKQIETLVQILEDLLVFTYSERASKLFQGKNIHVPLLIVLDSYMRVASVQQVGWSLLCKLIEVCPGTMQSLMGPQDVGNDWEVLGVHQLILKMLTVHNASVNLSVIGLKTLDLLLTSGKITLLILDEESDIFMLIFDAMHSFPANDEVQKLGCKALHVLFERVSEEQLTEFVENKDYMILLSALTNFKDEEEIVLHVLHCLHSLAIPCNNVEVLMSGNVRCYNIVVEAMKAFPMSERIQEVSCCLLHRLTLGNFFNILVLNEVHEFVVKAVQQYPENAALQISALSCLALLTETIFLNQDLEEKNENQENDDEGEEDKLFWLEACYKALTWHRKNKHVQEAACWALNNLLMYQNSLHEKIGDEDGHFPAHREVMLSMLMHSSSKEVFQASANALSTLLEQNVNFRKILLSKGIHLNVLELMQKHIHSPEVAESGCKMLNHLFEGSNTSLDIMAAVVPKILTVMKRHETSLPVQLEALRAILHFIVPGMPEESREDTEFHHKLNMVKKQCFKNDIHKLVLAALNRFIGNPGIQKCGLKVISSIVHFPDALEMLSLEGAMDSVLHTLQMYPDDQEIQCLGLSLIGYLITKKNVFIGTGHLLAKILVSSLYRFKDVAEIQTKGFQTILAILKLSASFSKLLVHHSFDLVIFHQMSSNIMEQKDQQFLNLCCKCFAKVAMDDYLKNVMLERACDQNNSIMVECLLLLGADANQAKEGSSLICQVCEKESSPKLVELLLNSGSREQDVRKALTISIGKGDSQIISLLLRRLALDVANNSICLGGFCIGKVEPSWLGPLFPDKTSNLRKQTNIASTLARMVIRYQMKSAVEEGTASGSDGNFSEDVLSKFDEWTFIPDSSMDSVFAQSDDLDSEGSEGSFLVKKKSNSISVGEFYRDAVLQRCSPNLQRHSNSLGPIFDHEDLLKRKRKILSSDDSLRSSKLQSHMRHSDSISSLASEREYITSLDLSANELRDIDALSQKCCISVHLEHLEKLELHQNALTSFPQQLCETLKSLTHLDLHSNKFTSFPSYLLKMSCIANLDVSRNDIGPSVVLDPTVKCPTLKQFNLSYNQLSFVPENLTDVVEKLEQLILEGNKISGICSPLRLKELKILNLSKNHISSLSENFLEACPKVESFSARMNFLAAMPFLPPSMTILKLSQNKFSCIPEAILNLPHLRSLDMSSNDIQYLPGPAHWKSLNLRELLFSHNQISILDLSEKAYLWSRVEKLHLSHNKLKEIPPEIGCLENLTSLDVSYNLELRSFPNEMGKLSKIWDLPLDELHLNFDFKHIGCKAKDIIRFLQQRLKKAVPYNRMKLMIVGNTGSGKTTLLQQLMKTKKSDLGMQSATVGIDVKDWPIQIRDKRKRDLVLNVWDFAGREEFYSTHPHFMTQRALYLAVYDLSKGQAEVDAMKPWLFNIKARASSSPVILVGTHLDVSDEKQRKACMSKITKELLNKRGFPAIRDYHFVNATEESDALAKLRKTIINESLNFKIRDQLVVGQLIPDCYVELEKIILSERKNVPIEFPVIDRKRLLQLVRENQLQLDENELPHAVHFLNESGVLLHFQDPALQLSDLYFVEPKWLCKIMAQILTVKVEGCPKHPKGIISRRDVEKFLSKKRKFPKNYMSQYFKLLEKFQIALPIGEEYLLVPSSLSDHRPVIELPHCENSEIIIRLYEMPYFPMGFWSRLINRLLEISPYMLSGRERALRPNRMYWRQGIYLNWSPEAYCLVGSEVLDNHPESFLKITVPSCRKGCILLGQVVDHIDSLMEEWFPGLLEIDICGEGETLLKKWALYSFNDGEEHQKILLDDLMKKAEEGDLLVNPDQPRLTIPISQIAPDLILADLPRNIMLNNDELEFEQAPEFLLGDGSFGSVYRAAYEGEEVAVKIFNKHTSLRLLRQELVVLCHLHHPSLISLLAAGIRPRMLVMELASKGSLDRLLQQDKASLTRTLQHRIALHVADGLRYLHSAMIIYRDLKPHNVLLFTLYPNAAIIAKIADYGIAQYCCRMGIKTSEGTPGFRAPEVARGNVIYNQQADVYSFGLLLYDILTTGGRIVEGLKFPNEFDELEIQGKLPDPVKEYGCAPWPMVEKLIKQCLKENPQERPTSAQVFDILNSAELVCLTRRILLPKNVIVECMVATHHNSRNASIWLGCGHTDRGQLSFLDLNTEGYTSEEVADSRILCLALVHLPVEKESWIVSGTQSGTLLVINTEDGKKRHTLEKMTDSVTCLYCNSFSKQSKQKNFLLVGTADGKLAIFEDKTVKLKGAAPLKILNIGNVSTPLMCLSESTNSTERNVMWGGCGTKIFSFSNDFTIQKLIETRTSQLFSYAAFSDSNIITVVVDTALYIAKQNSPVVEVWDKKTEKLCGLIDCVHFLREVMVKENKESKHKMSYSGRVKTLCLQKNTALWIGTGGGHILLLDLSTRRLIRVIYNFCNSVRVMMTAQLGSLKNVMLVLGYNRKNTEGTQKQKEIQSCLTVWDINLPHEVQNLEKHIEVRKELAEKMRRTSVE

## COCC1CCOc2ccc3c(c2)c(nn3C2CCCCO2)-c2cccc(c2)COC(=O)N1 (stereo not shown)
[1]; from COCC(CCOc1ccc2c(c1)c(-c1cccc(CO)c1)nn2C1CCCCO1)NC(=O)OCc1ccccc1, cesium carbonate, acetonitrile, 4.47 mM, 90.0 °C, 6.0 h
  ring closure, yield of all isomers: 62.3%

## O=C1NCCCOc2ccc3c(c2)c(nn3C2CCCCO2)-c2cc(Br)cc(c2)CO1 (stereo not shown)
[1]; from O=C(NCCCOc1ccc2c(c1)c(-c1cc(Br)cc(CO)c1)nn2C1CCCCO1)OCc1ccccc1, NaH, toluene, 1.6 mM, 140.0 °C, 42.0 h
  ring closure, yield of all isomers: 25.7%

## O=C1NC[C@@H](F)COc2ccc3[nH]nc(c3c2)-c2cnn(n2)CCO1 [Example 174, (12R)-12-fluoro-8,14-dioxa-4,5,10,19,20,23-hexaazatetracyclo[13.5.2.1^2,5.0^18,21]tricosa-1(20),2(23),3,15,17,21-hexaen-9-one]
[2]
  IC50: < 10 nM

## O=C1NCCC2(CC2)Oc2ccc3[nH]nc(c3c2)-c2cccc(c2)CO1 [Example 175, 8′,14′-dioxa-10′,19′,20′-triazaspiro[cyclopropane-1,13′-tetracyclo[13.5.2.1^2,6.0^18,21]tricosane]-1′(20′),2′(23′),3′,5′,15′(22′),16′,18′(21′)-heptaen-9′-one]
[2]
  IC50: < 10 nM
